Where “and” joins values, the source holds several entries; their conditions need not be identical. Equal values may be shown once. Inconclusive results and toxic doses are left out.
System: BDF1 mice, P388 leukemia ip, median survival T/C
Test: NCI In Vivo Anticancer Drug Screen. Data for tumor model P388 Leukemia (intraperitoneal) in B6D2F1 (BDF1) mice
Conditions: endpoint: median survival time, higher = longer survival
Method in brief: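 Reported as T/C, where T is the survival measurement in dosed animals and C the same measurement in vehicle controls.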

[1] = dose: 100.0 mg/kg/injection, schedule: Q04DX003 (ip), vehicle: saline with Tween-80
[2] = dose: 200.0 mg/kg/injection, schedule: Q04DX003 (ip), vehicle: saline with Tween-80
[3] = dose: 400.0 mg/kg/injection, schedule: Q04DX003 (ip), vehicle: saline with Tween-80
[4] = dose: 12.5 mg/kg/injection, schedule: Q01DX009 (ip), vehicle: saline with Tween-80
[5] = dose: 25.0 mg/kg/injection, schedule: Q01DX009 (ip), vehicle: saline with Tween-80
[6] = dose: 50.0 mg/kg/injection, schedule: Q01DX009 (ip), vehicle: saline with Tween-80
[7] = dose: 12.5 mg/kg/injection, schedule: Q01DX009 (ip), vehicle: saline
[8] = dose: 12.5 mg/kg/injection, schedule: Q04DX003 (ip), vehicle: saline
[9] = dose: 25.0 mg/kg/injection, schedule: Q01DX009 (ip), vehicle: saline
[10] = dose: 25.0 mg/kg/injection, schedule: Q04DX003 (ip), vehicle: saline
[11] = dose: 50.0 mg/kg/injection, schedule: Q04DX003 (ip), vehicle: saline
[12] = dose: 100.0 mg/kg/injection, schedule: Q04DX003 (ip), vehicle: saline
[13] = dose: 100.0 mg/kg/injection, schedule: Q01DX009 (ip), vehicle: Klucel (hydroxypropylcellulose) (HPC)
[14] = dose: 200.0 mg/kg/injection, schedule: Q01DX009 (ip), vehicle: Klucel (hydroxypropylcellulose) (HPC)
[15] = dose: 400.0 mg/kg/injection, schedule: Q01DX009 (ip), vehicle: Klucel (hydroxypropylcellulose) (HPC)
[16] = dose: 100.0 mg/kg/injection, schedule: Q01DX009 (ip), vehicle: saline with Tween-80
[17] = dose: 200.0 mg/kg/injection, schedule: Q01DX009 (ip), vehicle: saline with Tween-80
[18] = dose: 400.0 mg/kg/injection, schedule: Q01DX009 (ip), vehicle: saline with Tween-80
[19] = dose: 50.0 mg/kg/injection, schedule: Q01DX009 (ip), vehicle: Klucel (hydroxypropylcellulose) (HPC)

## COc1ccc2c(c1)C(Cc1ccc(Oc3ccc(CC4c5cc(OC)ccc5CC[N+]4(C)C)cc3)cc1)[N+](C)(C)CC2 (stereo unspecified)
dose: 0.1 mg/kg/injection, schedule: Q04DX003 (ip), vehicle: saline
  T/C: 104 % of control
dose: 0.2 mg/kg/injection, schedule: Q04DX003 (ip), vehicle: saline
  T/C: 100 % of control
dose: 0.39 mg/kg/injection, schedule: Q04DX003 (ip), vehicle: saline with Tween-80
  T/C: 93 % of control
dose: 0.4 mg/kg/injection, schedule: Q04DX003 (ip), vehicle: saline
  T/C: 96 % of control

## COc1ccc(C2C=CC(c3ccccc3)C(c3ccccc3)C2[N+](=O)[O-])cc1OC (stereo unspecified)
[1]
  T/C: 100 % of control
[2]
  T/C: 100 % of control
[3]
  T/C: 90 % of control

## O=C(O)CCSc1ncnc2nc[nH]c12
[4]
  T/C: 104 % of control
[5]
  T/C: 109 % of control
[6]
  T/C: 109 % of control
[1]
  T/C: 100 % of control
[2]
  T/C: 113 % of control
[3]
  T/C: 104 % of control

## CCCCCCCCN(N)C12CC3CC(CC(C3)C1)C2
[7]
  T/C: 116 % of control
[8]
  T/C: 90 % of control
[9]
  T/C: 119 % of control
[10]
  T/C: 100 % of control
[11]
  T/C: 94 % of control
[12]
  T/C: 100 % of control

## C[C@]12CC[C@@H]3c4ccc(OC5CCCCO5)cc4CC[C@H]3[C@@H]1CC[C@@H]2O (stereo partly specified)
dose: 100.0 mg/kg/injection, schedule: Q01DX009 (ip), vehicle: saline
  T/C: 105 % of control
[12]
  T/C: 100 % of control
dose: 200.0 mg/kg/injection, schedule: Q01DX009 (ip), vehicle: saline
  T/C: 95 % of control
dose: 200.0 mg/kg/injection, schedule: Q04DX003 (ip), vehicle: saline
  T/C: 100 % of control
dose: 400.0 mg/kg/injection, schedule: Q04DX003 (ip), vehicle: saline
  T/C: 100 % of control

## CCOC(=O)NC(C)(C)CN(C(=O)OCC)c1ccccc1
dose: 44.0 mg/kg/injection, schedule: Q04DX003 (ip), vehicle: saline with Tween-80
  T/C: 95 % of control
dose: 66.0 mg/kg/injection, schedule: Q04DX003 (ip), vehicle: saline with Tween-80
  T/C: 104 % of control
[1]
  T/C: 90 % of control
dose: 150.0 mg/kg/injection, schedule: Q04DX003 (ip), vehicle: saline with Tween-80
  T/C: 95 % of control

## CCOC(=O)CN(CC)C(=O)NC12CC3CC(CC(C3)C1)C2
[13]
  T/C: 100 % of control
[14]
  T/C: 103 % of control
[15]
  T/C: 102 % of control

## CN(C)c1ccc(Sc2ccc3nc(N)nc(N)c3c2)cc1
[6]
  T/C: 112 % of control
[16]
  T/C: 103 % of control
[17]
  T/C: 174 % of control

## O=[N+]([O-])c1ccc(S(=O)(=O)c2ccccc2)c2nonc12
[5]
  T/C: 107 % of control
[6]
  T/C: 98 % of control

## CC(C)Cn1cnc2c(Sc3c([N+](=O)[O-])ncn3C)nc(N)nc21
dose: 67.0 mg/kg/injection, schedule: Q01DX009 (ip), vehicle: Klucel (hydroxypropylcellulose) (HPC)
  T/C: 115 % of control
[14]
  T/C: 91 % of control and 104 % of control
[15]
  T/C: 86 % of control
dose: 400.0 mg/kg/injection, schedule: Q04DX003 (ip), vehicle: Klucel (hydroxypropylcellulose) (HPC)
  T/C: 118 % of control

## COc1ccc(N=Cc2cccs2)cc1
[16]
  T/C: 119 % of control
[17]
  T/C: 96 % of control
[18]
  T/C: 100 % of control

## O=C1OC(=O)C2C1C(c1ccc(Cl)cc1)N1C3C(=O)OC(=O)C3C(c3ccc(Cl)cc3)N21 (stereo unspecified)
[6]
  T/C: 97 % of control
[16]
  T/C: 93 % of control
[17]
  T/C: 88 % of control

## CC1(C)N=C(N)N=C(N)N1c1cccc(CCCCc2cccc(S(=O)(=O)F)c2)c1
dose: 1.5 mg/kg/injection, schedule: Q04DX003 (ip), vehicle: saline
  T/C: 118 % of control
dose: 4.0 mg/kg/injection, schedule: Q04DX003 (ip), vehicle: saline with Tween-80
  T/C: 109 % of control
dose: 6.0 mg/kg/injection, schedule: Q04DX003 (ip), vehicle: saline with Tween-80
  T/C: 113 % of control
dose: 6.25 mg/kg/injection, schedule: Q01DX009 (ip), vehicle: saline
  T/C: 108 % of control
dose: 9.0 mg/kg/injection, schedule: Q04DX003 (ip), vehicle: saline with Tween-80
  T/C: 118 % of control
[7]
  T/C: 116 % of control
[9]
  T/C: 116 % of control

## CC(C)Cn1cnc2c(SCc3ccc(Cl)cc3Cl)nc(N)nc21
dose: 66.0 mg/kg/injection, schedule: Q01DX009 (ip), vehicle: gum acacia
  T/C: 112 % of control
dose: 100.0 mg/kg/injection, schedule: Q01DX009 (ip), vehicle: gum acacia
  T/C: 95 % of control
dose: 100.0 mg/kg/injection, schedule: Q04DX003 (ip), vehicle: gum acacia
  T/C: 88 % of control
dose: 150.0 mg/kg/injection, schedule: Q01DX009 (ip), vehicle: gum acacia
  T/C: 100 % of control
dose: 200.0 mg/kg/injection, schedule: Q01DX009 (ip), vehicle: gum acacia
  T/C: 104 % of control
dose: 200.0 mg/kg/injection, schedule: Q04DX003 (ip), vehicle: gum acacia
  T/C: 88 % of control
dose: 400.0 mg/kg/injection, schedule: Q01DX009 (ip), vehicle: gum acacia
  T/C: 120 % of control

## NC(=O)N/N=C1\CCCC(CCC(=O)O)C1 (stereo unspecified)
dose: 100.0 mg/kg/injection, schedule: Q01DX001 (ip), vehicle: Klucel (hydroxypropylcellulose) (HPC)
  T/C: 96 % of control
dose: 200.0 mg/kg/injection, schedule: Q01DX001 (ip), vehicle: Klucel (hydroxypropylcellulose) (HPC)
  T/C: 100 % of control
dose: 400.0 mg/kg/injection, schedule: Q01DX001 (ip), vehicle: Klucel (hydroxypropylcellulose) (HPC)
  T/C: 100 % of control

## Cc1ncc(-c2ccc([N+](=O)[O-])cc2)o1
dose: 12.5 mg/kg/injection, schedule: Q01DX009 (ip), vehicle: Klucel (hydroxypropylcellulose) (HPC)
  T/C: 87 % of control
dose: 12.5 mg/kg/injection, schedule: Q04DX003 (ip), vehicle: Klucel (hydroxypropylcellulose) (HPC)
  T/C: 96 % of control
dose: 25.0 mg/kg/injection, schedule: Q01DX009 (ip), vehicle: Klucel (hydroxypropylcellulose) (HPC)
  T/C: 91 % of control
dose: 25.0 mg/kg/injection, schedule: Q04DX003 (ip), vehicle: Klucel (hydroxypropylcellulose) (HPC)
  T/C: 92 % of control
[19]
  T/C: 91 % of control
dose: 50.0 mg/kg/injection, schedule: Q04DX003 (ip), vehicle: Klucel (hydroxypropylcellulose) (HPC)
  T/C: 103 % of control
dose: 200.0 mg/kg/injection, schedule: Q04DX003 (ip), vehicle: Klucel (hydroxypropylcellulose) (HPC)
  T/C: 92 % of control

## N/C(=N\Cl)C(Cl)(Cl)Cl
[8]
  T/C: 109 % of control
[9]
  T/C: 150 % of control
[10]
  T/C: 118 % of control
dose: 33.0 mg/kg/injection, schedule: Q04DX003 (ip), vehicle: saline
  T/C: 118 % of control
dose: 37.5 mg/kg/injection, schedule: Q01DX009 (ip), vehicle: saline
  T/C: 118 % of control
[11]
  T/C: 118 % of control
dose: 75.0 mg/kg/injection, schedule: Q04DX003 (ip), vehicle: saline
  T/C: 118 % of control

## NC(=O)N/N=C/c1ccccc1N
[13]
  T/C: 90 % of control
[14]
  T/C: 100 % of control
[15]
  T/C: 100 % of control

## O=C(NC(COC(=O)C(Cc1ccccc1)NC(=O)c1ccccc1)Cc1ccccc1)c1ccccc1 (stereo unspecified)
dose: 4.0 mg/kg/injection, schedule: Q01DX009 (ip), vehicle: Klucel (hydroxypropylcellulose) (HPC)
  T/C: 102 % of control
dose: 8.0 mg/kg/injection, schedule: Q01DX009 (ip), vehicle: Klucel (hydroxypropylcellulose) (HPC)
  T/C: 104 % of control
dose: 16.0 mg/kg/injection, schedule: Q01DX009 (ip), vehicle: Klucel (hydroxypropylcellulose) (HPC)
  T/C: 93 % of control
dose: 32.0 mg/kg/injection, schedule: Q01DX009 (ip), vehicle: Klucel (hydroxypropylcellulose) (HPC)
  T/C: 98 % of control

## O=C(c1ccco1)C1Cc2ccccc2C1=O (stereo unspecified)
[16]
  T/C: 116 % of control
[1]
  T/C: 91 % of control
[17]
  T/C: 104 % of control
[2]
  T/C: 104 % of control
[18]
  T/C: 100 % of control
[3]
  T/C: 108 % of control

## COc1cccc(Sc2ccc([N+](=O)[O-])c3nonc23)c1
[4]
  T/C: 102 % of control
[5]
  T/C: 107 % of control

## O=S(=O)(c1cccc(C(F)(F)F)c1)N1c2ccccc2-n2cccc2C1c1cccnc1 (stereo unspecified)
[19]
  T/C: 94 % of control
[13]
  T/C: 103 % of control
[14]
  T/C: 96 % of control

## Cc1cc(NCCCCNCCCNc2cc(C)nc3cc(N)ccc23)c2ccc(N)cc2n1
dose: 12.5 mg/kg/injection, schedule: Q01DX009 (ip), vehicle: other
  T/C: 155 % of control
